Where two headings read alike, the source gives them in different places.

Series [1] is described as follows: in vivo. Also noted: species or system male SD rats. To be noted: male, SD, iv, 1 mg/kg, rat, 1 mpk. The method, then: Experimental purpose: To investigate the plasma pharmacokinetics of the compounds of the present disclosure in male SD rats after a single intravenous injection or an oral administration.
Experimental animals: male SD rats, 6 to 8 weeks old, weighing between 200 to 300 g;
Experimental procedure: Injection administration (i.v.) was carried out with a dose of 1 mpk, at a concentration of 0.50 mg/mL, with a vehicle of 40% DMAC+40% PG+20% (20% HP-β-CD+water). Oral administration (po) was carried out with a dose of 10 mpk, at a concentration of 1 mg/mL, with a vehicle of 3% DMSO+10% solutol HS+87% water.
(§1) Sample collection: At each time point, 0.03 mL of blood samples were collected from the experimental animals through a puncture of the saphenous vein. The actual blood collection time was recorded. All blood samples were kept in commercially available 1.5 mL EDTA-K2 anticoagulant tubes. After blood sample collection, DDV was added into the plasma matrix as a stabilizer, wherein the ratio of plasma to Dichlorvos (DDV) solution was 40:1. The DDV solution was a 40 mM DDV solution in acetonitrile/water (1:1). Within half an hour, the mixture was centrifuged at 4° C. and 3000 g for 10 minutes. The supernatant plasma was aspirated, quickly placed in dry ice, and stored in a −80° C. refrigerator for LC-MS/MS analysis.
Data analysis: A non-compartmental model in Phoenix WinNonlin 6.3 pharmacokinetic software was used to process the plasma concentration data. The pharmacokinetic parameters were calculated using the linear-log trapezoidal method: Cl (apparent clearance rate), T1/2 (the time required to clear half of the compound), Cmax (peak concentration), and AUC0-last (integral area under the concentration-time curve from 0 to the last sampling time).

Series [2] deals with influenza virus A/PR/8/34 (H1N1). Nature of the series: Influenza virus cytopathic effect (CPE) assay in MDCK cells. To be noted: 120 h, 5 days, CCK8. The series is classed as cell-based. For orientation: Cytopathic effects are the visible damage that an infection or toxin causes in cultured cells.
A short description of series [3]: in vivo. The arrangement: species or system male beagle dogs. To be noted: male, iv, 1 mg/kg, beagle dog, 1 mpk. The method, then:
Experimental purpose: To investigate the plasma pharmacokinetics of the compounds of the present disclosure in male beagle dogs after a single intravenous injection or an oral administration.
Experimental animals: male beagle dogs, >6 months old, weighing between 6 to 12 kg.
Experimental procedure: Injection administration (i.v.) was carried out with a dose of 1 mpk, at a concentration of 1 mg/mL, with a vehicle of 10% DMAC+90% (20% HP-β-CD+water). Oral administration (po) was carried out with a dose of 10 mpk, at a concentration of 2 mg/mL, with a vehicle of 3% DMSO+10% solutol HS+87% water.
as §1, with “0.8” for “0.03”
Data analysis: A non-compartmental model in Phoenix WinNonlin 6.3 pharmacokinetic software was used to process the plasma concentration data. The pharmacokinetic parameters were calculated using the linear-log trapezoidal method: Cl, T1/2, Cmax, and AUC0-last.

A short description of series [4]: in vitro. In kind it is in vitro ADME, CD-1 mouse. To be noted: CD-1; mouse (M) plasma, 2 μM, 37° C., 4 hours; read-out: Plasma protein binding (PPB) unbound (%). The method, then: (§2) Experimental purpose: To evaluate the protein binding rate of the compounds of the present disclosure in the plasma of CD-1 mouse, SD rat, and human using equilibrium dialysis.
(§3) Experimental protocol: The test compounds were diluted with dialysis buffer into the plasma of the above […] to prepare samples with a final concentration of 2 μM. The samples were then added to a 96-well equilibrium dialysis device and dialyzed using phosphate buffer solution at 37° C. for 4 hours. Warfarin was used as a control compound in the experiment. The concentration of the test compounds and warfarin in the plasma and buffer was determined using LC-MS/MS.

The nature of series [5]: in vitro. In kind it is in vitro ADME. To be noted: 2 μM, 37° C., 4 hours, read-out: Plasma protein binding (PPB) unbound (%). The protocol:
as §2, §3

Series [6] deals with influenza A virus A/PR/8/34 (H1N1). In kind it is in vivo, BALB/c mice. To be noted: for Survival rate (percentage): end of the experiment (day 14); for Maximum rate of weight loss / day N of maximum rate of weight loss: mouse, in vivo.

As to `O=C1c2c(O)c(=O)ccn2N([C@H]2c3ccc(F)c(F)c3C[Se]c3cccnc32)[C@@H]2COCCN12` [Compound 3], the results for the AUC(0-t) in “in vivo [1]” and in “in vivo [3]” were 171 nM·h and 830 nM·h, respectively. The values for the clearance in “in vivo [1]” and in “in vivo [3]” were 10.7 L/h/kg and 2.21 L/h/kg, respectively. The results for the half-life in “in vivo [1]” and in the series “in vivo [3]” were 1.7 h and 3.7 h, respectively. In series [2], the EC50 was 0.0028 µM. In addition, the fraction unbound in the series “in vitro [4]” stood at 0.137; in “in vitro [5]” (SD, rat (R) plasma) it was 0.313; in the series “in vitro [5]” (crab-eating macaque (C) plasma), 0.316; in the series “in vitro [5]” (dog (D) plasma) it was 0.246; in the series “in vitro [5]” (human (H) plasma), 0.259.
`O=C1c2c(O)c(=O)ccn2N([C@@H]2c3ccc(F)c(F)c3C[Se]c3cccnc32)[C@@H]2COCCN12` [Compound 3′] returned an EC50 in series [2] of 0.157 µM. In other words, the sub-micromolar range.
With `COC(=O)OCOc1c2n(ccc1=O)N([C@H]1c3ccc(F)c(F)c3C[Se]c3cccnc31)[C@@H]1COCCN1C2=O` [Compound 4], in series [6], the “Survival rate (percentage)” value stood at 100%, the “Maximum rate of weight loss” value came to 7.03% and the “day N of maximum rate of weight loss” value amounted to 3 days.
As for `COC(=O)OCOc1c2n(ccc1=O)N([C@@H]1c3ccccc3[Se]Cc3c1ccc(F)c3F)[C@@H]1COCCN1C2=O` [Compound 5], in series [6], the “Survival rate (percentage)” value is 100%, the “Maximum rate of weight loss” value is 13.77% and the “day N of maximum rate of weight loss” value was 7 days.

Usually AUC(0-t) stands for exposure summed from dosing to a finite time, without extrapolation to infinity. Read a low AUC(0-t) as low exposure. For orientation: clearance means the volume of plasma or blood freed of the substance per unit of time. One may read the half-life as the time needed for the level to fall by half in the phase considered. Usually EC50 stands for the concentration giving half of the maximal effect. A high value points to lower potency in that assay.

For the origin of these results see patent publication US12552812B2, “Pyridone multiple-membered ring derivatives and use thereof” (priority 2021, dated 2026).
